target: T1, Ubiquitin carboxyl-terminal hydrolase 30 (Homo sapiens, UniProt Q70CQ3); experiment: USP30 Biochemical IC50 Assay
T1 sequence (Q70CQ3 whole entry): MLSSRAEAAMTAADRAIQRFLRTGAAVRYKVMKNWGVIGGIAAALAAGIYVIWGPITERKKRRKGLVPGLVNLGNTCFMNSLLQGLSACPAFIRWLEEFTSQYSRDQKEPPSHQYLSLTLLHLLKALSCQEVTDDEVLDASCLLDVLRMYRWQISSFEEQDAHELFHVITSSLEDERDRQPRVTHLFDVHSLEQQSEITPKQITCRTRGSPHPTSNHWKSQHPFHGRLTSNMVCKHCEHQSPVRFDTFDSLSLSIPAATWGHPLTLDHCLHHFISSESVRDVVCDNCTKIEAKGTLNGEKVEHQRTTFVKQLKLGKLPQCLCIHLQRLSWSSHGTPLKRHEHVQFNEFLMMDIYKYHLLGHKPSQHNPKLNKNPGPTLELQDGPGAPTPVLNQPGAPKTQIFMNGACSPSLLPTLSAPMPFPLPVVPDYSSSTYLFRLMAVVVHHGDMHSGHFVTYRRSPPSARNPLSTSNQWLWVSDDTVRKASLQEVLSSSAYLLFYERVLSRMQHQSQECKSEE
Procedure: Dilution plates were prepared at 21 times the final concentration (2100 µM for a final concentration of 100 µM) in 50% DMSO in a 96-well polypropylene V-bottom plate (Greiner #651201). A typical 8-point dilution series would be 100, 30, 10, 3, 1, 0.3, 0.1, 0.03 µM final. Reactions were performed in duplicate in black 384 well plates (small volume, Greiner 784076) in a final reaction volume of 21 µl. Either 1 µl of 50% DMSO or diluted compound was added to the plate. USP30 (Boston Biochem #E582) was diluted in reaction buffer (40 mM Tris, pH 7.5, 0.005% Tween 20, 0.5 mg/ml BSA, 5 mM beta-mercaptoethanol) to achieve a final assay concentration of 4 nM, and 10 µl of diluted USP30 was added to the compound. Enzyme and compound were incubated for 30 min at room temp. Reactions were initiated by the addition of 50 nM of TAMRA labelled peptide linked to ubiquitin via an iso-peptide bond as fluorescence polarisation substrate. Reactions were read immediately after addition of substrate and following a 2-hour incubation at room temperature. Readings were performed on a Pherastar Plus (BMG Labtech). λ Excitation 540 nm; λ Emission 590 nm.

| SMILES | IC50 |
| --- | --- |
| C[C@@H]1C[C@@H](NC(=O)c2ncc(-c3cc(C#N)ccc3OC3CC3)o2)CN1C#N [US20230303547, Example 1] | 3 nM |
| COC[C@@H]1C[C@@H](NC(=O)c2ncc(-c3cc(C#N)ccc3OC3CC3)o2)CN1C#N [US20230303547, Example 2] | 3 nM |
| N#Cc1ccc(OC2CC2)c(-c2cnc(C(=O)N[C@@H]3C[C@@H](CF)N(C#N)C3)o2)c1 [US20230303547, Example 3] | 1 nM |
| COc1ccc(C#N)cc1-c1cnc(C(=O)N[C@@H]2C[C@@H](C)N(C#N)C2)o1 [US20230303547, Example 4] | 2 nM |

Source: BindingDB's records for patent US20230303547 (Mission Therapeutics, 2023)
